From US7001608B2, “Artificial synapse chip interface for electronic prosthetic retina” (The Board of Trustees of the Lealand Stanford Junior …, priority 2001, dated 2006)

Assay: Gramicidin D conductance change in lipid bilayer across silicon nitride aperture
Assay type: biochemical
Settings: 5 to 20 μl of 2 mg/ml gD in ethanol to each bath; within minutes; capacitance remained constant; ethanol alone no effect
From the text: Lipid bilayers were formed by the method of Montal and Mueller (1972). In practicing the Langmuir-Blodgett technique, one raises two lipid monolayers across an aperture, allowing the lipids to align their hydrophobic tail portions across the aperture so as to form a lipid bilayer. Because of the hydrophobic nature of the lipid tails, in order to form stable bilayers the surface of a BSP must also be hydrophobic. If the substrate is hydrophobic, the lipids can smoothly transition from coating the substrate to spanning the aperture. To reverse the wetting properties of the naturally hydrophilic silicon nitride, the silicon nitride was coated with an alkylsilane (octyltrichlorosilane). Application of this coating was quite simple and very effective. It was not found to be possible to form a bilayer with untreated devices. Use of longer carbon chain silanes or alternative materials to make the surface even more hydrophobic would further increase bilayer stability.
For smaller apertures, it was more difficult to observe the capacitance change over the background. In this case, membrane-bound proteins that affect the electrical properties of the bilayer, such as carriers and ion channels, offered the best proof of the formation of a bilayer. The ion channel peptide Gramicidin D (gD), was chosen for ease of use and large conductance change. […]

With Gramicidin D [gD] the “conductance of the bilayer” value was “dramatically increased”.
